Several values for one entry are separate records, joined by “and”; a condition that tells them apart may be missing. Equal entries are not always repeated.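 In this assay, cells in 96-well plates receive the compound at five concentrations for 48 hours. Endpoints are linearly interpolated between the surrounding concentrations. The concentration for 50% growth inhibition is given as GI50. The concentration for full growth arrest is given as TGI.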
Assays:
Assay in all cases: inhibition of tumour cell growth, NCI panel, 48 h
[1] = system: HS 578T breast
[2] = system: HT29 colon
[3] = system: 786-0 renal
[4] = system: IGROV1 ovarian
[5] = system: OVCAR-4 ovarian
[6] = system: CAKI-1 renal
[7] = system: A498 renal
[8] = system: BT-549 breast
[9] = system: SF-268 CNS
[10] = system: MCF7 breast

| SMILES | GI50 [1] | TGI [1] | GI50 [2] | TGI [2] | GI50 [3] | TGI [3] | GI50 [4] | TGI [4] | GI50 [5] [µM] | TGI [5] [µM] | GI50 [6] | TGI [6] | GI50 [7] | TGI [7] | GI50 [8] [µM] | TGI [8] [µM] | GI50 [9] | TGI [9] | GI50 [10] | TGI [10] |
| --- | --- | --- | --- | --- | --- | --- | --- | --- | --- | --- | --- | --- | --- | --- | --- | --- | --- | --- | --- | --- |
| CN1CCC2(CC1)N=C(SCC(=O)Nc1cnc3ccccc3c1)C(c1ccc(Br)cc1)=N2 | 2.23 µM | 7.27 µM | 1.85 µM | 3.64 µM | 1.5 µM | 2.85 µM | 1.77 µM | 4.19 µM | 3.52 | 15.8 | 1.64 µM | 3.94 µM | 3.96 µM | 14.9 µM | 12 | 24.4 | 3.46 µM | 14.7 µM | 1.8 µM | 3.55 µM |
| CCCCC(=O)N(c1ccc(Nc2c3ccccc3nc3cc([N+](=O)[O-])ccc23)cc1)S(C)(=O)=O | 6.15 µM | 48.3 µM | 13.6 µM | 60.3 µM | 4.3 µM | > 100 µM | 6.86 µM | > 45.8 µM | 11.1 | 29.2 | 7.03 µM | > 51.9 µM | 1.71 µM | 13.1 µM | 18.4 | 80.6 | 6.58 µM | > 77.7 µM | 0.293 µM | 9.83 µM |
| COc1cc(-c2nn(-c3ccc(NC(=O)Nc4cc(C(F)(F)F)cc(C(F)(F)F)c4)cc3)cc2-c2ccncc2)ccc1Cl | 2.94 µM | > 100 µM | 3.31 µM | 12.3 µM | 2.48 µM | 6.39 µM | 2.65 µM | 8.25 µM | 2.78 | 9.43 | 1.97 µM | 6.73 µM | 1.81 µM | 3.79 µM | 2.61 | 6.03 | 2.47 µM | 7.3 µM | 2.84 µM | 8.98 µM |
| O=C1C=C(NCCO)c2nccc3c2c1nc1ccccc13 | 25.5 µM | > 100 µM | 26.9 µM | > 100 µM | 31.5 µM | > 100 µM | 20.4 µM | > 100 µM | 41.3 | > 100 | 23.3 µM | 82.2 µM | 38.2 µM | > 100 µM | 36 | > 100 | 26.4 µM | > 100 µM | 20.5 µM | > 100 µM |
| Cn1c(CCCC(=O)O)nc2cc(N(CCCl)CCCl)ccc21 | > 83.3 µM | > 100 µM | > 100 µM | > 100 µM | > 80.9 µM | > 100 µM | 70 µM | > 100 µM | > 100 | > 100 | 53.2 µM | > 86.8 µM | > 32.6 µM | > 75 µM | > 77.5 | > 100 | 68.5 µM | > 100 µM | 69.2 µM | > 100 µM |
| C=CCn1c2ccccc2c2c3c(c4c5ccccc5n(CC=C)c4c21)C(=O)N(O)C3=O | 19.6 µM | > 100 µM | 2.02 µM | 4.9 µM | 2.66 µM | 40.4 µM | 1.4 µM | 3.8 µM | 5.38 | 44.8 | 1.69 µM | 3.45 µM | 2.55 µM | 9.48 µM | 3.27 | 27.9 | 3.72 µM | 32.4 µM | 0.674 µM | 29.9 µM |
| c1ccc(-c2[nH]ncc2-c2ccnc(-c3ccc(OCCN4CCOCC4)cc3)c2)nc1 | > 25 µM | > 25 µM | > 25 µM | > 25 µM | > 25 µM | > 25 µM | > 25 µM | > 25 µM | > 25 | > 25 | > 25 µM | > 25 µM | > 25 µM | > 25 µM | > 25 | > 25 | > 25 µM | > 25 µM | > 25 µM | > 25 µM |
| COc1ccc(OC)c(Nc2nc3nonc3nc2Nc2cccc(Br)c2)c1 | 0.807 µM | 8.14 µM | 1.13 µM | > 100 µM | 1.71 µM | 13.8 µM | 2.87 µM | 42.5 µM | 0.867 | > 100 | 0.811 µM | 15.2 µM | 0.461 µM | 4.11 µM | 0.537 | 6.97 | 0.982 µM | > 100 µM | 1.63 µM | > 100 µM |
| O=C(O)CCC(c1ccccc1)(c1ccccc1)c1ccccc1 | – | > 100 µM | – | > 100 µM | – | > 100 µM | 71.2 µM | > 100 µM | – | > 100 | 66.4 µM | > 100 µM | – | > 100 µM | 80.1 | > 100 | – | > 92.9 µM | – | > 71 µM |
| C#C[C@@]1(O)[C@@H](CO)O[C@@H](n2cc(Br)c3c(Cl)ccnc32)[C@@H]1O | 1.01 µM | > 100 µM | 0.964 µM | > 100 µM | 1.68 µM | > 100 µM | 4.86 µM | > 100 µM | 0.677 | > 100 | 0.602 µM | > 100 µM | 0.303 µM | 2.55 µM | 0.522 | 12.2 | 10.5 µM | > 100 µM | 0.394 µM | > 31.6 µM |
| O/N=C(\CC(O)(C(F)(F)F)C(F)(F)F)c1cccs1 | – | > 10 µM | – | > 10 µM | – | > 10 µM | – | > 10 µM | – | > 10 | – | > 10 µM | – | > 10 µM | – | > 10 | – | > 10 µM | – | > 10 µM |
| Cc1cc(O)ccc1C1=NN(c2ccc(S(N)(=O)=O)cc2)C(=O)CC1 | 6.64 µM and 60.5 µM | 43.9 µM and > 100 µM | 2.52 µM and 4.65 µM | 50 µM and > 100 µM | 18.9 µM and 43.6 µM | 50 µM and > 100 µM | 6.75 µM and 9.07 µM | 50 µM and > 100 µM | > 100 | > 100 | 4.08 µM and 4.93 µM | 50 µM and 82.1 µM | 9.08 µM and 77.2 µM | 50 µM and > 100 µM | 1.49 | 43.6 | 10.1 µM and 25.5 µM | 50 µM and > 100 µM | 2.26 µM and 8.23 µM | 50 µM and > 100 µM |
| Cc1ccc(N(C=O)c2c([N+](=O)[O-])cc([N+](=O)[O-])c3c2=[N+]([O-])CN=3)cc1 | – | > 100 µM | – | > 100 µM | – | 67.6 µM | – | > 100 µM | – | > 100 | – | > 100 µM | – | > 100 µM | – | 69 | – | > 100 µM | – | 57.7 µM |
